Results from patent US6495591B1, “Fungal efflux pump inhibitors” (Essential Therapeutics, Inc., priority 1997, dated 2002).
Values after ≈ are worked out from the molar mass of the structure shown. Where two headings read alike, the source gives them in different places.

What was measured:
[1] = system: C. glabrata YEM-17 (CgCDR overexpressor); experiment: microbe, parasite or virus in culture; type: cell-based; design: MIC Reduction Factor, fluconazole / MIC Reduction Factor, itraconazole / MIC Reduction Factor, ketoconazole / MIC Reduction Factor, terbinafine: unit not given beside the values; settings: for MIC: Nakaseomyces glabratus
[2] = system: S. cerevisiae YEM-1 overexpressing CDR1 (C. albicans); experiment: microbe, parasite or virus in culture; type: cell-based; design: MIC Reduction Factor, fluconazole: unit not given beside the values; settings: for MIC: Saccharomyces cerevisiae
[3] = biological target: pCDRI (ABC) efflux pump in S. cerevisiae YEM-1 (Candida albicans, UniProt P43071); experiment: cell-based; type: cell-based, C. albicans
pCDRI (ABC) efflux pump in S. cerevisiae YEM-1, sequence (P43071 whole entry): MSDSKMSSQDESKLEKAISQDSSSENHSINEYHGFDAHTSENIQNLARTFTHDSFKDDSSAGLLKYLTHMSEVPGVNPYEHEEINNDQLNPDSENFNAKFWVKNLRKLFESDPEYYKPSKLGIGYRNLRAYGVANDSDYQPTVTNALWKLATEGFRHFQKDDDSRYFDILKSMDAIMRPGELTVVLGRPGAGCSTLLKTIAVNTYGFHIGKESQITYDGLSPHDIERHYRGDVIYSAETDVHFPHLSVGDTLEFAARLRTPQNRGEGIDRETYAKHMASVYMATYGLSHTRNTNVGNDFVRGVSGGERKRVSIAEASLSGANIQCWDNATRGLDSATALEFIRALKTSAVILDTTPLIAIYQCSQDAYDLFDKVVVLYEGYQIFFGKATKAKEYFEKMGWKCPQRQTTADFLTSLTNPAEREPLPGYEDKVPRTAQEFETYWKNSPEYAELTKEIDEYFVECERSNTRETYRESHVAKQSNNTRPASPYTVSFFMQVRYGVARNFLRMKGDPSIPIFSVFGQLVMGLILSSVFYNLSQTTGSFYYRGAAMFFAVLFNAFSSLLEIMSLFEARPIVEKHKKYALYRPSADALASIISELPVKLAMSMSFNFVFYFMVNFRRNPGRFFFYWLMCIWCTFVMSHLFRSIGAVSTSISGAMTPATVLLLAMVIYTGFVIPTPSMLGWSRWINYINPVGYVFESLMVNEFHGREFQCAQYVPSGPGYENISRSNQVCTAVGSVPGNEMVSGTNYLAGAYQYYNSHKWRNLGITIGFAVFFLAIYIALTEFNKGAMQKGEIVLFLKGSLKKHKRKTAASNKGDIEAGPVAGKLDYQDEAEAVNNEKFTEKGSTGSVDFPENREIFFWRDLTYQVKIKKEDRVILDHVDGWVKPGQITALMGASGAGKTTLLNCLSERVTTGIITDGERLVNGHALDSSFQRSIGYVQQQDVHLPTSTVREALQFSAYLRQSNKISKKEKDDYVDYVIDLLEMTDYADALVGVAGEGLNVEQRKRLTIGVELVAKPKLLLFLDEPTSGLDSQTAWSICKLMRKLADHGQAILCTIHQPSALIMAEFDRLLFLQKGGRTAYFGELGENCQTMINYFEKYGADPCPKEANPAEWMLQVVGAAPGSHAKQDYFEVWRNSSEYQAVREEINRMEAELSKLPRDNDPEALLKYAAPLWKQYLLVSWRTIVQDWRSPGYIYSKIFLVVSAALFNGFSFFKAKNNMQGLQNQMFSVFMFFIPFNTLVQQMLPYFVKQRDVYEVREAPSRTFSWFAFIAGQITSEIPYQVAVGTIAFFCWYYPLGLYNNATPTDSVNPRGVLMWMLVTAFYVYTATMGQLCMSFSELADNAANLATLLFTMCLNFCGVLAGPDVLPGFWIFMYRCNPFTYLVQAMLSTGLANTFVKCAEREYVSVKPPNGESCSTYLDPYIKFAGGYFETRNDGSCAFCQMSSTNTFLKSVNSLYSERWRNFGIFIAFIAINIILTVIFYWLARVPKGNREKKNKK

[4] = biological target: pCDR2 (ABC) efflux pump in S. cerevisiae YEM-37 (Candida albicans, UniProt P78595); experiment: cell-based; type: cell-based, C. albicans
pCDR2 (ABC) efflux pump in S. cerevisiae YEM-37, sequence (P78595 whole entry): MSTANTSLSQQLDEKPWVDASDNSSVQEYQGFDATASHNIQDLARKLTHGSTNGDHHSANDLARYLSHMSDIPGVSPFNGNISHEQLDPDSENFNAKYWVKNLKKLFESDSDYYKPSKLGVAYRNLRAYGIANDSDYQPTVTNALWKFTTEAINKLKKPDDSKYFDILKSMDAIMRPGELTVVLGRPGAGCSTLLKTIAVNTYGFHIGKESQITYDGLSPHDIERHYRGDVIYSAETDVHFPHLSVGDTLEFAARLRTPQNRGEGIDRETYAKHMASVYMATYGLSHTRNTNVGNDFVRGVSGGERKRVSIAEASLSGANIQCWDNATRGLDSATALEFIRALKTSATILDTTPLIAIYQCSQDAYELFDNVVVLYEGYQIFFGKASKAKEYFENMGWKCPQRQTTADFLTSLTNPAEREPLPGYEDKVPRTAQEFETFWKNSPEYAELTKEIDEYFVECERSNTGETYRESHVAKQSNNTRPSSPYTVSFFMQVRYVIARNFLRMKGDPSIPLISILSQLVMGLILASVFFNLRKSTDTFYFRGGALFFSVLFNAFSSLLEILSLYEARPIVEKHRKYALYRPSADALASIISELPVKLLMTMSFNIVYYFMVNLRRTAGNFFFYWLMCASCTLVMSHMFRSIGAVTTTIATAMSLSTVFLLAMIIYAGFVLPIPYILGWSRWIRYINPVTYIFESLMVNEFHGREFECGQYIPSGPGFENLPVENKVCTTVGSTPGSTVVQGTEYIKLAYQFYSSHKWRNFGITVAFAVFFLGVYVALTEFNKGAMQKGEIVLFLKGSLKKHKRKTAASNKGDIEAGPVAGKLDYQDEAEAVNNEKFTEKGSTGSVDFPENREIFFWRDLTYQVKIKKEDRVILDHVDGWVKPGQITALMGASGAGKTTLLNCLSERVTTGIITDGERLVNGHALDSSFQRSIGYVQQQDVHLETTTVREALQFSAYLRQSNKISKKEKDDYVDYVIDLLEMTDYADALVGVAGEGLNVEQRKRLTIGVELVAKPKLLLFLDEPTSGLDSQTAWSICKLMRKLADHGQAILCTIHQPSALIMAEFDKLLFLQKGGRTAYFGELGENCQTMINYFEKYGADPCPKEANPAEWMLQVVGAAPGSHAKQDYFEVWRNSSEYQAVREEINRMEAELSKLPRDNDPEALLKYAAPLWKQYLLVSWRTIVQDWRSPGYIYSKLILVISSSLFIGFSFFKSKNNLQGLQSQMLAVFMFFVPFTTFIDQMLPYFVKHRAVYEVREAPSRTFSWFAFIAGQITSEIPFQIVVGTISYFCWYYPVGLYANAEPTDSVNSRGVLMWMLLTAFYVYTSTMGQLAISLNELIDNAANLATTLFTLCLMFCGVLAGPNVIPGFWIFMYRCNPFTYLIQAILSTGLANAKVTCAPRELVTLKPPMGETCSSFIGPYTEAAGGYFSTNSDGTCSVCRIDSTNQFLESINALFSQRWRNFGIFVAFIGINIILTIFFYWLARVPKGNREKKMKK

[5] = biological target: pCgCDR (ABC) efflux pump in S. cerevisiae YEM-39 (Candida glabrata, UniProt Q6FK23); experiment: cell-based; type: cell-based, C. glabrata
pCgCDR (ABC) efflux pump in S. cerevisiae YEM-39, sequence (Q6FK23 whole entry): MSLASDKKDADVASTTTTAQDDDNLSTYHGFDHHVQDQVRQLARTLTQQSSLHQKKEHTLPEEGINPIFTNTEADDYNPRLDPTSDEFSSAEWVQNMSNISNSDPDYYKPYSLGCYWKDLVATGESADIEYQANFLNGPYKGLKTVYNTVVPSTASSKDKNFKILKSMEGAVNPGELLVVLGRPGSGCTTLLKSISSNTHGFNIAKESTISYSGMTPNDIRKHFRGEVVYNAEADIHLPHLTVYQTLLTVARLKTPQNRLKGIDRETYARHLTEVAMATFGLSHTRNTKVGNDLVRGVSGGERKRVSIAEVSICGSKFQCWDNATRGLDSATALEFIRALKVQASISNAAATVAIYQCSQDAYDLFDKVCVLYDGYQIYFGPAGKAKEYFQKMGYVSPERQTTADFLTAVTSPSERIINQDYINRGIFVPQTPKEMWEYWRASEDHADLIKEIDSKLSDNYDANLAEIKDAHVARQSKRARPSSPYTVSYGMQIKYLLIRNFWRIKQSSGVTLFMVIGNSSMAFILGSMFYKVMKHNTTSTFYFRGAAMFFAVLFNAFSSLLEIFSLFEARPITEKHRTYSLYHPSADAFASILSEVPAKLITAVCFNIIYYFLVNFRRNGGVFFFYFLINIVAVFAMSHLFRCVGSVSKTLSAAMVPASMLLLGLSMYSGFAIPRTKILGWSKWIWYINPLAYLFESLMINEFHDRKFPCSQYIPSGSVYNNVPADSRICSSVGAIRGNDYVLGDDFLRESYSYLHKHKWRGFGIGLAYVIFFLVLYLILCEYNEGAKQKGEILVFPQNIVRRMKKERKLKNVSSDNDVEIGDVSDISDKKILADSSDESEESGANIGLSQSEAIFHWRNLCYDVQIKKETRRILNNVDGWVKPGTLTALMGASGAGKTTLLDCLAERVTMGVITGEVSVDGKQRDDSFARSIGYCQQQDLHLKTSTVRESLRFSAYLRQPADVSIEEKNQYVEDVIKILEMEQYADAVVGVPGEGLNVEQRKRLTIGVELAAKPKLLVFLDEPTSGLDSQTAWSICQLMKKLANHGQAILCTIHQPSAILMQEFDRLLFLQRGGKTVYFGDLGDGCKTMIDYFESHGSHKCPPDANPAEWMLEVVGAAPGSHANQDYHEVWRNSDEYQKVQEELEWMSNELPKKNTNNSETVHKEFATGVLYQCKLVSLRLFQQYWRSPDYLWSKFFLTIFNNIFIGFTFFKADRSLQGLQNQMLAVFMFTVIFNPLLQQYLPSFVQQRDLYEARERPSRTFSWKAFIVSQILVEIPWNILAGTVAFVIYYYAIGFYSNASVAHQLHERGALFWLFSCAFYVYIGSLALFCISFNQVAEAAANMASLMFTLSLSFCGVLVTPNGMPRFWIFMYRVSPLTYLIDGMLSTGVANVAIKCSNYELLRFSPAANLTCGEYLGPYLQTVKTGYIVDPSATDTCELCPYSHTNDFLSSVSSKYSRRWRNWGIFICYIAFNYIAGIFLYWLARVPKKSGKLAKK

[6] = biological target: pBEN (MF) efflux pump in S. cerevisiae YEM-2 (Candida albicans, UniProt P28873); experiment: cell-based; type: cell-based, C. albicans
pBEN (MF) efflux pump in S. cerevisiae YEM-2, sequence (P28873 whole entry): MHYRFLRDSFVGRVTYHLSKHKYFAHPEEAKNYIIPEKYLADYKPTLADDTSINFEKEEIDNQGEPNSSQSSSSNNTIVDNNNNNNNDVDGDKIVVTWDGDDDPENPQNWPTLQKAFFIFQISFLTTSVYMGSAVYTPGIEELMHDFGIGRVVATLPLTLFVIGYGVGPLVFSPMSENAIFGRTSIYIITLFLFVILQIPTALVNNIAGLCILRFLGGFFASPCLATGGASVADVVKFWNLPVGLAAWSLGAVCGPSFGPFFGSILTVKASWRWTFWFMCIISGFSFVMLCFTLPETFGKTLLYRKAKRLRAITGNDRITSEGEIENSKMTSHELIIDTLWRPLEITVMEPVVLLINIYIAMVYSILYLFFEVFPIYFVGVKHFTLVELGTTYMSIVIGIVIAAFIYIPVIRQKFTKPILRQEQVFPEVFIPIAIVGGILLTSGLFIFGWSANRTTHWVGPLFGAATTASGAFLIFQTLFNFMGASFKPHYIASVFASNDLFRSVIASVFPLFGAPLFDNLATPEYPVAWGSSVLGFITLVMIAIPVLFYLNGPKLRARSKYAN

[7] = system: pCgBEN (MF) efflux pump in S. cerevisiae YEM-40; type: cell-based, C. glabrata; settings: YEM-40 pCgBEN; fluconazole fixed at FLUhalf 2.8
[8] = system: YEM 13 C. albicans BEN up; experiment: microbe, parasite or virus in culture; type: cell-based; settings: YEM 13, 24 hrs, 80% inhibition; for MIC of compound in the presence of fluconazole (+): 1/8 × MIC of fluconazole
[9] = system: YEM 15 C. albicans, CDR1CDR2 up; experiment: microbe, parasite or virus in culture; type: cell-based; settings: YEM 15, 24 hrs, 80% inhibition; for MIC of compound in the presence of fluconazole (+): 1/8 × MIC of fluconazole
YEM 53 C. krusei = experiment: FEPI MIC with/without 1/8 fluconazole MIC at 24 hrs (Table 11); type: cell-based; settings: for MIC of compound in the absence of fluconazole (−): YEM 53, 24 hrs, 80% inhibition
[10] = system: YEM 17 C. glabrata, CgCDR up; type: cell-based; settings: 24 hrs, 80% inhibition; for MIC of compound in the presence of fluconazole (+): 1/8 × MIC of fluconazole
YEM 51 C. glabrata wt = experiment: FEPI MIC with/without 1/8 fluconazole MIC at 24 hrs (Table 11); type: cell-based; settings: for MIC of compound in the absence of fluconazole (−): YEM 51, 24 hrs, 80% inhibition
YEM 30 C. albicans wt = experiment: as above; type: cell-based; settings: for MIC of compound in the absence of fluconazole (−): YEM 30, 24 hrs, 80% inhibition
[11] = system: YEM 24 C. albicans ΔCDR1, ΔCDR2; experiment: microbe, parasite or virus in culture; type: cell-based; settings: YEM 24, 24 hrs, 80% inhibition; for MIC of compound in the presence of fluconazole (+): 1/8 × MIC of fluconazole
[12] = system: YEM 27 C. albicans ΔCDR1ΔCDR2 ΔBENΔFLU1; experiment: microbe, parasite or virus in culture; type: cell-based; settings: YEM 27, 24 hrs, 80% inhibition; for MIC of compound in the presence of fluconazole (+): 1/8 × MIC of fluconazole
Aspergillus fumigatus = experiment: FEPI MICs in combination with 1/4 the azole's MIC (Table 12); type: cell-based; settings: for FEPI MIC with itraconazole, 60% Inh / FEPI MIC with itraconazole, 80% Inh: itraconazole 0.063 μg/ml (1/4 MIC); for FEPI MIC with itraconazole, 60% Inh / FEPI MIC with ketoconazole, 60% Inh: 60% inhibition; for FEPI MIC with itraconazole, 80% Inh / FEPI MIC with ketoconazole, 80% Inh / FEPI MIC (alone): 80% inhibition; for FEPI MIC with ketoconazole, 60% Inh / FEPI MIC with ketoconazole, 80% Inh: ketoconazole 4 μg/ml (1/4 MIC); for FEPI MIC (alone): no azole, 35° C., CM Broth
Protocol: The combinations were tested against a series of Candida strain with known expression of efflux pumps or with complete deletion of all known pumps and Aspergillus fumigatus. Results are reported as minimum inhibitory concentration (MIC) of […] in the presence or absence of […]. A total of 27 distinct milbemycins were studied.

C. tropicalis = experiment: microbe, parasite or virus in culture; type: cell-based
C. neoformans = experiment: microbe, parasite or virus in culture; type: cell-based, Cryptococcus neoformans
C. krusei = experiment: microbe, parasite or virus in culture; type: cell-based
[13] = system: C. albicans YEM-20 (CDR1 deleted); experiment: microbe, parasite or virus in culture; type: cell-based
[14] = system: C. albicans YEM-27 (CDR1, CDR2, BEN, FLU1 deleted); experiment: microbe, parasite or virus in culture; type: cell-based
[15] = system: C. albicans YEM-10 (low level CDR1 expressor); experiment: microbe, parasite or virus in culture; type: cell-based
[16] = system: C. glabrata YEM-19 (CgCDR overexpression, higher than YEM-17); experiment: microbe, parasite or virus in culture; type: cell-based
[17] = read-out: Terbinafine MIC in the presence of FEPImax
[18] = YEM-17, milbemycin α9 at FEPImax
[19] = YEM-1 (CDR1), milbemycin α9 at FEPImax
[20] = YEM-1, milbemycin α9 at FEPImax
[21] = Candida albicans, read-out: MIC Mb alone

## C/C1=C\C[C@@H]2C[C@@H](C[C@]3(CC[C@H](C)[C@@H](C)O3)O2)OC(=O)[C@@H]2C=C(COC(=O)c3ccc[nH]3)[C@@H](O)[C@H]3OC/C(=C\C=C\[C@H](C)C1)[C@]32O [Compound 11, Milbemycin α9]
[1]; read-out: Milbemycin α9 MIC
  MIC: > 64 µg/mL
[1]; [17]
  MIC: 4 µg/mL
[1]; YEM-17
  FEPImax (minimal milbemycin α9 conc. for maximum MIC reduction), fluconazole: 8 µg/mL
  FEPImax (minimal milbemycin α9 conc. for maximum MIC reduction), itraconazole: 4 µg/mL
  FEPImax (minimal milbemycin α9 conc. for maximum MIC reduction), ketoconazole: 16 µg/mL
  FEPImax (minimal milbemycin α9 conc. for maximum MIC reduction), terbinafine: 4 µg/mL
[1]; [18]
  Fluconazole MIC in the presence of FEPImax: 4 µg/mL
  Itraconazole MIC in the presence of FEPImax: 0.125 µg/mL
  Ketoconazole MIC in the presence of FEPImax: 0.06 µg/mL
  MIC Reduction Factor, fluconazole: 32
  MIC Reduction Factor, itraconazole: 1024
  MIC Reduction Factor, ketoconazole: 32
  MIC Reduction Factor, terbinafine: 32
[2]; read-out: Milbemycin α9 MIC
  MIC: > 64 µg/mL
[2]; [17]
  MIC: 0.5 µg/mL
[2]; YEM-1 (CDR1)
  FEPImax (minimal milbemycin α9 conc. for maximum MIC reduction), fluconazole: 2 µg/mL
  FEPImax (minimal milbemycin α9 conc. for maximum MIC reduction), terbinafine: 0.5 µg/mL
[2]; [19]
  Pump inhibition (%), fluconazole: 100%
  Pump inhibition (%), terbinafine: 100%
[2]; [20]
  Fluconazole MIC in the presence of FEPImax: 0.5 µg/mL
  MIC Reduction Factor, fluconazole: 256
[3]
  IC50: < 0.0941 µM
[4]
  IC50: 3.14 µM
[5]
  IC50: 6.27 µM
[6]
  IC50: > 100 µM
[7]
  FEPIhalf (concentration needed to reduce activity of efflux pump by 50%): >64
[8]
  MIC of compound in the presence of fluconazole (+): > 64 µg/mL
  MIC of compound in the absence of fluconazole (−): > 64 µg/mL
[9]
  MIC of compound in the presence of fluconazole (+): ≦0.03
  MIC of compound in the absence of fluconazole (−): > 64 µg/mL
YEM 53 C. krusei
  MIC of compound in the presence of fluconazole (+): ≦0.03
  MIC of compound in the absence of fluconazole (−): > 64 µg/mL
[10]
  MIC of compound in the presence of fluconazole (+): 0.5 µg/mL
  MIC of compound in the absence of fluconazole (−): > 64 µg/mL
YEM 51 C. glabrata wt
  MIC of compound in the presence of fluconazole (+): 1 µg/mL
  MIC of compound in the absence of fluconazole (−): > 64 µg/mL
YEM 30 C. albicans wt
  MIC of compound in the presence of fluconazole (+): ≦0.03
  MIC of compound in the absence of fluconazole (−): > 64 µg/mL
[11]
  MIC of compound in the presence of fluconazole (+): > 64 µg/mL
  MIC of compound in the absence of fluconazole (−): > 64 µg/mL
[12]
  MIC of compound in the presence of fluconazole (+): > 64 µg/mL
  MIC of compound in the absence of fluconazole (−): > 64 µg/mL
Aspergillus fumigatus
  FEPI MIC with fluconazole, 60% Inh: ≦0.063
  FEPI MIC with fluconazole, 80% Inh: 0.5
  FEPI MIC with itraconazole, 60% Inh: 1
  FEPI MIC with itraconazole, 80% Inh: 4
  FEPI MIC with ketoconazole, 60% Inh: 0.125
  FEPI MIC with ketoconazole, 80% Inh: 0.125
  FEPI MIC (alone): >64
C. tropicalis
  Fluconazole MIC, + milbemycin α9: ≦0.25 μg/ml
C. neoformans
  Fluconazole MIC, + milbemycin α9: ≦0.25 μg/ml
C. krusei
  Fluconazole MIC, + milbemycin α9: 16 µg/mL

## CO[C@H]1C[C@@]2(O)/C(CO)=C/C=C/[C@H](C)C/C(C)=C/C[C@@H]3C[C@@H](C[C@]4(CC[C@H](C)[C@@H](C)O4)O3)OC(=O)[C@@H]2C=C1C [Compound 6, Milbemycin β1]
[13]; [21]
  MIC: 16 µg/mL (≈ 29.4 µM)
[13]; YEM-20, CDR1 deleted, milbemycin β1 2.5 μg/ml
  MIC of fluconazole, Flu + Mb (2.5 μg/ml): 0.125 µg/mL
[14]; [21]
  MIC: 16 µg/mL (≈ 29.4 µM)
[14]; YEM-27, all four pumps deleted, milbemycin β1 2.5 μg/ml
  MIC of fluconazole, Flu + Mb (2.5 μg/ml): 0.03 µg/mL
[14]; YEM-27, strain which lacked all identified efflux pumps
  Effect on fluconazole susceptibility: No effect
[15]; [21]
  MIC: 16 µg/mL (≈ 29.4 µM)
[15]; YEM-10, milbemycin β1 2.5 μg/ml
  MIC of fluconazole, Flu + Mb (2.5 μg/ml): 0.125 µg/mL
[16]; Nakaseomyces glabratus, read-out: MIC of milbemycin β1 (MB) alone
  MIC: > 64 µg/mL
[16]; YEM-19
  Fluconazole MIC with 2.5 μg/ml milbemycin β1: 8 µg/mL
  Fluconazole MIC with 5 μg/ml milbemycin β1: 2 µg/mL
  Fluconazole MIC with 10 μg/ml milbemycin β1: 2 µg/mL
  Fluconazole MIC with […] milbemycin β1: 32 µg/mL
[3]; read-out: FEPIhalf (concentration needed to reduce activity of efflux pump by 50%), YEM-1 pCDRI, fluconazole fixed at FLUhalf 5.6
  IC50: 0.918 µM
[4]; read-out: FEPIhalf (concentration needed to reduce activity of efflux pump by 50%), YEM-37 pCDR2, fluconazole fixed at FLUhalf 1
  IC50: 3.67 µM
[5]; read-out: FEPIhalf (concentration needed to reduce activity of efflux pump by 50%), YEM-39 pCgCDR, fluconazole fixed at FLUhalf 4
  IC50: 3.67 µM
[6]; read-out: FEPIhalf (concentration needed to reduce activity of efflux pump by 50%), YEM-2 pBEN, fluconazole fixed at FLUhalf 5.6
  IC50: 29.4 µM
[7]
  FEPIhalf (concentration needed to reduce activity of efflux pump by 50%): 16
[8]
  MIC of compound in the presence of fluconazole (+): > 64 µg/mL
  MIC of compound in the absence of fluconazole (−): > 64 µg/mL
[9]
  MIC of compound in the presence of fluconazole (+): ≦0.03
  MIC of compound in the absence of fluconazole (−): > 64 µg/mL
YEM 53 C. krusei
  MIC of compound in the presence of fluconazole (+): 8 µg/mL
  MIC of compound in the absence of fluconazole (−): > 64 µg/mL
[10]
  MIC of compound in the presence of fluconazole (+): 1 µg/mL
  MIC of compound in the absence of fluconazole (−): > 64 µg/mL
YEM 51 C. glabrata wt
  MIC of compound in the presence of fluconazole (+): 8 µg/mL
  MIC of compound in the absence of fluconazole (−): > 64 µg/mL
YEM 30 C. albicans wt
  MIC of compound in the presence of fluconazole (+): ≦0.03
  MIC of compound in the absence of fluconazole (−): > 64 µg/mL
[11]
  MIC of compound in the presence of fluconazole (+): > 64 µg/mL
  MIC of compound in the absence of fluconazole (−): > 64 µg/mL
[12]
  MIC of compound in the presence of fluconazole (+): 64 µg/mL
  MIC of compound in the absence of fluconazole (−): > 64 µg/mL
Aspergillus fumigatus
  FEPI MIC with fluconazole, 60% Inh: 2
  FEPI MIC with fluconazole, 80% Inh: >64
  FEPI MIC with itraconazole, 60% Inh: >64
  FEPI MIC with itraconazole, 80% Inh: >64
  FEPI MIC with ketoconazole, 60% Inh: ≦0.063
  FEPI MIC with ketoconazole, 80% Inh: 4
  FEPI MIC (alone): >64
